Results on 1 cell line are retold here after the supplement of paper PMC10307832.

Common to all, as to assay: relative viability (nuclei count vs DMSO), 5 days (fraction); higher = more cells survive
Compound in assay [1]: C1=CC(=CC=C1NC(=S)NNC2=C(C=C(C=C2[N+](=O)[O-])C(F)(F)F)[N+](=O)[O-])F [Kobe2602] + C[C@]1(O)C[C@@H](c2nc(-c3ccc4ccc(-c5ccccc5)nc4c3)c3c(N)nccn32)C1 [Linsitinib] (partner 1 µM)
A digest of the protocol:
(§1)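 A single step with final 0.05% Triton X-100, 1% formaldehyde and 1 ug/ml Hoechst fixed the cells and stained nuclei 5 days after treatment. Lung cancer cell lines in 1536-well plates had been treated by pin tool the day after seeding with one drug alone or a fixed anchor-drug dose plus five library-drug doses (not always all listed) in √10 steps, and nuclei were counted on 4× images. Relative viability is the ratio of nuclei in treated wells to nuclei in vehicle wells, taken as the median of duplicate plates.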

Compound in assay [2]: C1=CC(=CC=C1NC(=S)NNC2=C(C=C(C=C2[N+](=O)[O-])C(F)(F)F)[N+](=O)[O-])F [Kobe2602] + Cc1cc(Nc2cc(N3CCN(C)CC3)nc(Sc3ccc(NC(=O)C4CC4)cc3)n2)n[nH]1 [Tozasertib] (partner 0.1 µM)
Put shortly:
as §1

Compound in assay [3]: COc1cc2nccc(Oc3ccc(NC(=O)C4(C(=O)Nc5ccc(F)cc5)CC4)cc3)c2cc1OC [Cabozantinib] + COc1cccc2cc(-c3nc([C@H]4CC[C@H](C(=O)O)CC4)n4ncnc(N)c34)[nH]c12 [OSI-027] (partner 0.5 µM)
Put shortly:
as §1

Compound in assay [4]: COc1cc2nccc(Oc3ccc(NC(=O)C4(C(=O)Nc5ccc(F)cc5)CC4)cc3)c2cc1OC [Cabozantinib] + Cc1nc(Nc2ncc(C(=O)Nc3c(C)cccc3Cl)s2)cc(N2CCN(CCO)CC2)n1 [Dasatinib] (partner 0.075 µM)
A digest of the protocol: as §1

Turning to UMC-11, the relative viability in assay [1] (first compound 0.2 µM) is 1; in assay [1] (first compound 0.6325 µM) it was 1.06; in assay [1] (first compound 2 µM), 0.997; in assay [1] (first compound 6.325 µM), 0.996; in assay [1] (first compound 20 µM), 0.947; in assay [2] (first compound 0.2 µM), 0.215. In addition, the relative viability in assay [2] (first compound 0.6325 µM) came out at 0.219; in assay [2] (first compound 2 µM), 0.189; in assay [2] (first compound 6.325 µM) it was 0.197; in assay [2] (first compound 20 µM), 0.211; in assay [3] (first compound 0.02 µM), 0.45; in assay [3] (first compound 0.06325 µM), 0.49. Besides, the relative viability in assay [3] (first compound 0.2 µM) came out at 0.518; in assay [3] (first compound 0.6325 µM) it was 0.547; in assay [3] (first compound 2 µM) it was 0.432; in assay [4] (first compound 0.02 µM), 0.494; in assay [4] (first compound 0.06325 µM) it was 0.492; in assay [4] (first compound 0.2 µM), 0.453. The relative viability in assay [4] (first compound 0.6325 µM) was 0.493; in assay [4] (first compound 2 µM), 0.452.
